Experimental data from patent US20100267784A1, “NOVEL 4,5-DIHYDROISOXAZOLES WITH ESTROGENIC ACTIVITY” (priority 2007, published 2010).

Columns and labels:
[1] = target: T1, ERα (Homo sapiens, UniProt P03372); test: ERα reporter (luciferase) transactivation assay in transfected HEK293 cells; type: cell-based; set-up: expressed in transfected cells; host or cells: HEK293; conditions: sample concentration 10 μM, 24 hours, mean of at least three independent transfections
T1 sequence (P03372 1-595): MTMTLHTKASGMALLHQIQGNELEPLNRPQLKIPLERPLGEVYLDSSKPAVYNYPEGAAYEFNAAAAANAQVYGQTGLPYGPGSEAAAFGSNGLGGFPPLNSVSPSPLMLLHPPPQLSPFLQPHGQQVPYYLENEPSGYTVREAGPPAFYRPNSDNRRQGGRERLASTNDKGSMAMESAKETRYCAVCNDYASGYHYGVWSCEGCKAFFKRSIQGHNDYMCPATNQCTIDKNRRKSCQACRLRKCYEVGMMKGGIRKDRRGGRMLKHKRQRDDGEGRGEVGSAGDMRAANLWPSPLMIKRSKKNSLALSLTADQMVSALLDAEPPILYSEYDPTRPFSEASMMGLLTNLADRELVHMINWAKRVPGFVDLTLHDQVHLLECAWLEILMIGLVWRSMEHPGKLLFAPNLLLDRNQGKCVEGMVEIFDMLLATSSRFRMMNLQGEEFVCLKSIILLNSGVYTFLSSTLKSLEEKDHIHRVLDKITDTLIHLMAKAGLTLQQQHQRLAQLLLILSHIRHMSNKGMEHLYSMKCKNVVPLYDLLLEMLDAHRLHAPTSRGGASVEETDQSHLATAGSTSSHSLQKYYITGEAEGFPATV
Procedure: (§1) Determination of the Estrogen Activity of the Compounds: Cell Culture, Transfection and Reporter Assays
(§2) All other reagents were of reagent grade from Sigma or Fluka. One day before transfection, HEK293 cells were seeded in 48-well plates (70×10^3 cells per well) in phenol-free Dulbecco's modified Eagle medium supplemented with 5% delipidated fetal bovine serum (Sigma) and antibiotics. After a medium change, the cells were transfected for 4 hours with 5 ng ERα or ERβ expression vector, 75 ng reporter plasmid pERE2TATA-LUC and 20 ng control plasmid pCMVβ by the calcium phosphate method. After transfection, the cells received fresh medium containing either vehicle (0.1% v/v) or test compound (10 μM). After 24 hours, the cells were washed, lysed and luciferase and β-galactosidase activities were determined from 20 μl of lysates with the Victor^2TM reader (PerkinElmer Wallac, Turku, Finland). […] The data are means ±SEM of at least three independent transfections.

[2] = target: ERβ (Homo sapiens, UniProt Q92731); test: ERβ reporter (luciferase) transactivation assay in transfected HEK293 cells; type: cell-based; set-up: expressed in transfected cells; host or cells: HEK293; conditions: for ERβ receptor activation relative to 10 nM E2 corresponding 100: sample concentration 10 μM, 24 hours, mean of at least three independent transfections; for activation at 10 µM: HEK293, 24 h, read-out: ERβ receptor activation relative to 10 nM E2 corresponding 100, sample concentration 10 μM, mean of at least three independent transfections
Procedure: as §1, §2

Chain of ERβ (Q92731 whole entry): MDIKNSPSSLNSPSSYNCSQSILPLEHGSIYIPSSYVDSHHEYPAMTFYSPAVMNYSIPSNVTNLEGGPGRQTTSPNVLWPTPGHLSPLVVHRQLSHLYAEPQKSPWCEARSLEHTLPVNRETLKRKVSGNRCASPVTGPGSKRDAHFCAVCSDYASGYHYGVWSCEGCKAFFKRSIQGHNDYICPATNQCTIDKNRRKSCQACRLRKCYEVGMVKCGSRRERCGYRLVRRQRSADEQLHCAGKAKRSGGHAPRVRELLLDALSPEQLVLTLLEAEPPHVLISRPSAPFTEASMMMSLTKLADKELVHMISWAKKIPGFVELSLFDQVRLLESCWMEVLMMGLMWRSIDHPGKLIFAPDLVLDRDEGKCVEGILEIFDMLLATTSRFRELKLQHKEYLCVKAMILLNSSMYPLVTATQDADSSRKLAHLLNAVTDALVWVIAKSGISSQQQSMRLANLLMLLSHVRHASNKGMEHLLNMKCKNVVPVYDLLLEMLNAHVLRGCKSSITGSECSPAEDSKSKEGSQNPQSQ

ERα receptor activation relative to 10 nM E2 corresponding 100 [1] [%] | ERβ receptor activation relative to 10 nM E2 corresponding 100 [2] [%] | activation at 10 µM [2] [%] | Structure (SMILES)
6.2 | 0.6 | – | Oc1ccc(CC2CC(CCc3ccccc3O)=NO2)cc1 (single isomer, unassigned) [95b, 5-(4-Hydroxy-benzyl)-3-[2-(2-hydroxy-phenyl)-ethyl]-4,5-dihydro-isoxazole]
76.2 | 12.0 | – | Oc1ccc(CCC2=NOC(Cc3ccc(O)cc3)C2)cc1 (single isomer, unassigned) [96a, 5-(4-Hydroxy-benzyl)-3-[2-(4-hydroxy-phenyl)-ethyl]-4,5-dihydro-isoxazole]
81.4 | 4.1 | – | Oc1ccc(CCC2=NOC(Cc3ccc(O)cc3)C2)cc1 (single isomer, unassigned) [96b, 5-(4-Hydroxy-benzyl)-3-[2-(4-hydroxy-phenyl)-ethyl]-4,5-dihydro-isoxazole]
82.0 | 3.4 | – | Oc1ccccc1CCC1=NOC(Cc2ccc(F)cc2)C1 (single isomer, unassigned) [97a, 5-(4-Fluoro-benzyl)-3-[2-(2-hydroxy-phenyl)-ethyl]-4,5-dihydro-isoxazole]
11.1 | −2.4 | – | Oc1ccccc1CCC1=NOC(Cc2ccc(F)cc2)C1 (single isomer, unassigned) [97b, 5-(4-Fluoro-benzyl)-3-[2-(2-hydroxy-phenyl)-ethyl]-4,5-dihydro-isoxazole]
77.8 | 28.4 | – | Oc1ccc(CCC2=NOC(Cc3ccc(F)cc3)C2)cc1 (single isomer, unassigned) [98a, 5-(4-Fluoro-benzyl)-3-[2-(4-hydroxy-phenyl)-ethyl]-4,5-dihydro-isoxazole]
5.7 | 4.4 | – | Oc1ccc(CCC2=NOC(Cc3ccc(F)cc3)C2)cc1 (single isomer, unassigned) [98b, 5-(4-Fluoro-benzyl)-3-[2-(4-hydroxy-phenyl)-ethyl]-4,5-dihydro-isoxazole]
153.7 | 78.2 | – | Oc1ccc(CCCC2=NOC(Cc3ccccc3)C2)cc1 (single isomer, unassigned) [99a, 5-Benzyl-3-[3-(4-hydroxy-phenyl)-propyl]-4,5-dihydro-isoxazole]
75.1 | 19.8 | – | Oc1ccc(CCCC2=NOC(Cc3ccccc3)C2)cc1 (single isomer, unassigned) [99b, 5-Benzyl-3-[3-(4-hydroxy-phenyl)-propyl]-4,5-dihydro-isoxazole]
67.1 | 4.7 | – | Oc1ccc(CC2CC(CCCc3ccccc3)=NO2)cc1 (single isomer, unassigned) [100a, 5-(4-Hydroxy-benzyl)-3-(3-phenyl-propyl)-4,5-dihydro-isoxazole]
97.2 | 17.0 | – | Oc1ccc(CC2CC(CCCc3ccccc3)=NO2)cc1 (single isomer, unassigned) [100b, 5-(4-Hydroxy-benzyl)-3-(3-phenyl-propyl)-4,5-dihydro-isoxazole]
14.4 | −0.9 | – | Oc1ccc(CCCC2=NOC(Cc3ccc(O)cc3)C2)cc1 (single isomer, unassigned) [101a, 5-(4-Hydroxy-benzyl)-3-[3-(4-hydroxy-phenyl)-propyl]-4,5-dihydro-isoxazole]
13.6 | 10.6 | – | Oc1ccc(CCCC2=NOC(Cc3ccc(O)cc3)C2)cc1 (single isomer, unassigned) [101b, 5-(4-Hydroxy-benzyl)-3-[3-(4-hydroxy-phenyl)-propyl]-4,5-dihydro-isoxazole]
1.7 | −1.1 | – | Oc1ccc(CC2CC(CCCc3ccc(O)c(O)c3)=NO2)cc1 (single isomer, unassigned) [103a, 3-[3-(3,4-Dihydroxy-phenyl)-propyl]-5-(4-hydroxy-benzyl)-4,5-dihydro-isoxazole]
1.4 | −0.7 | – | Oc1ccc(CC2CC(CCCc3ccc(O)c(O)c3)=NO2)cc1 (single isomer, unassigned) [103b, 3-[3-(3,4-Dihydroxy-phenyl)-propyl]-5-(4-hydroxy-benzyl)-4,5-dihydro-isoxazole]
4.5 | – | 4.2 | Oc1ccccc1CCC1=NOC(CCc2ccccc2)C1 (single isomer, unassigned) [104a, 3[2-(2-Hydroxy-phenyl)-ethyl]-5-phenethyl-4,5-dihydro-isoxazole]
21.8 | 2.6 | – | Oc1ccccc1CCC1=NOC(CCc2ccccc2)C1 (single isomer, unassigned) [104b, 3[2-(2-Hydroxy-phenyl)-ethyl]-5-phenethyl-4,5-dihydro-isoxazole]
8.3 | – | 2.6 | Oc1cccc(CCC2=NOC(CCc3ccccc3)C2)c1 (single isomer, unassigned) [105a, 3-[2-(3-Hydroxy-phenyl)-ethyl]-5-phenethyl-4,5-dihydro-isoxazole]
3.0 | 3.6 | – | Oc1cccc(CCC2=NOC(CCc3ccccc3)C2)c1 (single isomer, unassigned) [105b, 3-[2-(3-Hydroxy-phenyl)-ethyl]-5-phenethyl-4,5-dihydro-isoxazole]
62.8 | 15.4 | – | Oc1ccc(CCC2=NOC(CCc3ccccc3)C2)cc1 (single isomer, unassigned) [106a, 3-[2-(4-Hydroxy-phenyl)-ethyl]-5-phenethyl-4,5-dihydro-isoxazole]
15.8 | 0.8 | – | Oc1ccc(CCC2=NOC(CCc3ccccc3)C2)cc1 (single isomer, unassigned) [106b, 3-[2-(4-Hydroxy-phenyl)-ethyl]-5-phenethyl-4,5-dihydro-isoxazole]
−1.0 | – | 6.6 | c1ccc(CC2CC(c3ccccc3)=NO2)cc1 (single isomer, unassigned) [107a, 5-Benzyl-3-phenyl-4,5-dihydroisoxazole]
47.2 | 12.8 | – | c1ccc(CC2CC(c3ccccc3)=NO2)cc1 (single isomer, unassigned) [107b, 5-Benzyl-3-phenyl-4,5-dihydroisoxazole]
68.4 | – | 1.1 | c1ccc(CCC2=NOC(Cc3ccccc3)C2)cc1 (single isomer, unassigned) [109a, 5-Benzyl-3-phenethyl-4,5-dihydroisoxazole]
38.2 | 1.3 | – | c1ccc(CCC2=NOC(Cc3ccccc3)C2)cc1 (single isomer, unassigned) [109b, 5-Benzyl-3-phenethyl-4,5-dihydroisoxazole]
16.4 | – | 9.8 | c1ccc(CCC2=NOC(c3ccccc3)C2)cc1 (single isomer, unassigned) [110a, 3-Phenethyl-5-phenyl-4,5-dihydroisoxazole]
11.2 | 8.1 | – | c1ccc(CCC2=NOC(c3ccccc3)C2)cc1 (single isomer, unassigned) [110b, 3-Phenethyl-5-phenyl-4,5-dihydroisoxazole]
22.8 | 8.5 | – | c1ccc(CCC2CC(c3ccccc3)=NO2)cc1 (single isomer, unassigned) [111a, 5-Phenethyl-3-phenyl-4,5-dihydroisoxazole]
